Read-outs that look alike come from different tables or passages of the source.
Legend:
[1] = test system: one day old houseflies (Musca domestica); experiment: Ingestion test with one day old houseflies; assay type: in vivo; conditions: read-out: % flies killed; for mortality at 0.4 ppm: 0.4 ppm in 30% sugar water; for mortality at 0.8 ppm: 0.8 ppm in 30% sugar water; for mortality at 1.5 ppm: 1.5 ppm in 30% sugar water; for mortality at 3 ppm: 3 ppm in 30% sugar water; for mortality at 6 ppm: 6 ppm in 30% sugar water; for mortality at 12 ppm: 12 ppm in 30% sugar water; for mortality at 25 ppm: 25 ppm in 30% sugar water; for mortality at 50 ppm: 50 ppm in 30% sugar water; for mortality at 100 ppm: 100 ppm in 30% sugar water
Procedure: Dilution series were manufactured with water. As solvent for the test preparations and similarly as a nutrition agent for the flies, 30% sugar water was used which had been coloured with chlorantin light red (as an attractant). The dilutions were tested with one day old houseflies. The 1, 2 and 4 hour controls enabled the speed of action to be determined. By means of the 24 hour control the limit concentration (action strength) could also be determined.

Sitophilus granarius = experiment: Durability (disinfection) test on wheat, grain weevil; assay type: in vivo; conditions: 168 h, read-out: % animals dead after one week exposure
Text: (§1) Wheat was shaken up with 5% dusting agent and then mixed again repeatedly with untreated wheat at half the poison concentration. In this way, a dilution series with concentrations of 50 - 25 - 12 - 6 - 3 - 1.5 ppm was obtained.
(§2) Since the test is repeated once per month, the desired information is obtained concerning the residual effect. In the test, the important pests in storage protection were chosen, viz, the grain weevil (Sitophilus granarius) - lesser grain borer (Rhizopertha dominica) and the larvae of the Khapra beetle (Trogoderma granarium), which are very resistant to insecticides. 20 test insects were tested per concentration and the results are expressed in the following table.

Rhizopertha dominica = experiment: Durability (disinfection) test on wheat, lesser grain borer; assay type: in vivo; conditions: Rhyzopertha dominica, 168 h, read-out: % animals dead after one week exposure
Text: as §1, §2

Trogoderma granarium (L) = experiment: Durability (disinfection) test on wheat, larvae of the Khapra beetle; assay type: in vivo; conditions: 168 h, read-out: % animals dead after one week exposure
Text: as §1, §2

Sit. Granarius = experiment: Diffusion action in wheat (gas phase between wheat grains); assay type: in vivo; conditions: Sitophilus granarius, 168 h, 50 ppm treated wheat layer, read-out: Mortality in % after 7 days exposure time
Text: A plexiglass box was divided by means of wire grids into ten vertical layers each 1 cm thick. Each compartment was filled with wheat grains. The first compartment contained wheat grains which had been treated with 50 ppm active agent (5% dusting agent). The remainder of the compartment contained untreated wheat. All the compartments were then supplied with grain weevils. The mortality was noted after 7 days exposure time and the results are expressed in the following table. Diffusion of active substance in gas phase between the wheat grains

insects = experiment: Insecticidal action and effective life (general statement); assay type: in vivo
[2] = Vapour pressure and diffusion (general statement)
[3] = Acute oral toxicity (warm blooded toxicity) in rats; conditions: rat, in vivo, po
[4] = compared to compounds of French Pat. No. 1530955, PHOSDRIN or DDVP

## COC(=O)C(C)=COP(=S)(OC)OC [Compound I, 3-hydroxymethacrylic acid methyl ester dimethylthionophosphate]
[1]; 1 hour
  mortality at 0.4 ppm: 0%
  mortality at 0.8 ppm: 0%
  mortality at 1.5 ppm: 0%
  mortality at 3 ppm: 10%
  mortality at 6 ppm: 30%
  mortality at 12 ppm: 40%
  mortality at 25 ppm: 40%
  mortality at 50 ppm: 60%
  mortality at 100 ppm: 100%
[1]; 2 hours
  mortality at 0.4 ppm: 0%
  mortality at 0.8 ppm: 0%
  mortality at 1.5 ppm: 0%
  mortality at 3 ppm: 20%
  mortality at 6 ppm: 40%
  mortality at 12 ppm: 70%
  mortality at 25 ppm: 70%
  mortality at 50 ppm: 90%
  mortality at 100 ppm: 100%
[1]; 4 hours
  mortality at 0.4 ppm: 0%
  mortality at 0.8 ppm: 0%
  mortality at 1.5 ppm: 0%
  mortality at 3 ppm: 50%
  mortality at 6 ppm: 100%
  mortality at 12 ppm: 100%
  mortality at 25 ppm: 100%
  mortality at 50 ppm: 100%
  mortality at 100 ppm: 100%
[1]; 24 hours
  mortality at 0.4 ppm: 0%
  mortality at 0.8 ppm: 0%
  mortality at 1.5 ppm: 10%
  mortality at 3 ppm: 90%
  mortality at 6 ppm: 100%
  mortality at 12 ppm: 100%
  mortality at 25 ppm: 100%
  mortality at 50 ppm: 100%
  mortality at 100 ppm: 100%
Sitophilus granarius; wheat fresh
  mortality at 1.5 ppm: 100%
  mortality at 3 ppm: 100%
  mortality at 6 ppm: 100%
  mortality at 12 ppm: 100%
  mortality at 25 ppm: 100%
  mortality at 50 ppm: 100%
Sitophilus granarius; wheat stored 1 month
  mortality at 1.5 ppm: 90%
  mortality at 3 ppm: 100%
  mortality at 6 ppm: 100%
  mortality at 12 ppm: 100%
  mortality at 25 ppm: 100%
  mortality at 50 ppm: 100%
Sitophilus granarius; wheat stored 2 months
  mortality at 1.5 ppm: 100%
  mortality at 3 ppm: 100%
  mortality at 6 ppm: 100%
  mortality at 12 ppm: 100%
  mortality at 25 ppm: 100%
  mortality at 50 ppm: 100%
Sitophilus granarius; wheat stored 3 months
  mortality at 1.5 ppm: 70%
  mortality at 3 ppm: 95%
  mortality at 6 ppm: 100%
  mortality at 12 ppm: 100%
  mortality at 25 ppm: 100%
  mortality at 50 ppm: 100%
Rhizopertha dominica; wheat fresh
  mortality at 1.5 ppm: 20%
  mortality at 3 ppm: 90%
  mortality at 6 ppm: 100%
  mortality at 12 ppm: 100%
  mortality at 25 ppm: 100%
  mortality at 50 ppm: 100%
Rhizopertha dominica; wheat stored 1 month
  mortality at 1.5 ppm: 0%
  mortality at 3 ppm: 5%
  mortality at 6 ppm: 60%
  mortality at 12 ppm: 85%
  mortality at 25 ppm: 100%
  mortality at 50 ppm: 100%
Rhizopertha dominica; wheat stored 2 months
  mortality at 1.5 ppm: 15%
  mortality at 3 ppm: 10%
  mortality at 6 ppm: 40%
  mortality at 12 ppm: 70%
  mortality at 25 ppm: 80%
  mortality at 50 ppm: 100%
Rhizopertha dominica; wheat stored 3 months
  mortality at 1.5 ppm: 0%
  mortality at 3 ppm: 15%
  mortality at 6 ppm: 15%
  mortality at 12 ppm: 35%
  mortality at 25 ppm: 75%
  mortality at 50 ppm: 100%
Trogoderma granarium (L); wheat fresh
  mortality at 1.5 ppm: 90%
  mortality at 3 ppm: 95%
  mortality at 6 ppm: 100%
  mortality at 12 ppm: 100%
  mortality at 25 ppm: 100%
  mortality at 50 ppm: 100%
Trogoderma granarium (L); wheat stored 1 month
  mortality at 1.5 ppm: 0%
  mortality at 3 ppm: 10%
  mortality at 6 ppm: 85%
  mortality at 12 ppm: 95%
  mortality at 25 ppm: 100%
  mortality at 50 ppm: 100%
Trogoderma granarium (L); wheat stored 2 months
  mortality at 1.5 ppm: 0%
  mortality at 3 ppm: 0%
  mortality at 6 ppm: 30%
  mortality at 12 ppm: 85%
  mortality at 25 ppm: 100%
  mortality at 50 ppm: 100%
Trogoderma granarium (L); wheat stored 3 months
  mortality at 1.5 ppm: 0%
  mortality at 3 ppm: 0%
  mortality at 6 ppm: 10%
  mortality at 12 ppm: 55%
  mortality at 25 ppm: 100%
  mortality at 50 ppm: 100%
Sit. Granarius; distance 1 cm
  mortality at 50 ppm: 100%
Sit. Granarius; distance 2 cm
  mortality at 50 ppm: 100%
Sit. Granarius; distance 3 cm
  mortality at 50 ppm: 100%
Sit. Granarius; distance 4 cm
  mortality at 50 ppm: 100%
Sit. Granarius; distance 5 cm
  mortality at 50 ppm: 90%
Sit. Granarius; distance 6 cm
  mortality at 50 ppm: 15%
insects; [4]
  insecticidal action: stronger insecticidal action
insects; in vivo
  effective life: more than 4 months
[2]
  diffusion into the gaps between stored foodstuffs: diffuses easily
[2]; [4]
  vapour pressure: increased vapour pressure
[3]
  LD50: 500 mg/kg

Source: US4017611A, “Control of insects with 3-hydroxymethacrylic acid methyl ester dimethylthionophosphate” (priority 1970, dated 1977)
